Legend:
[1] = system: CHO-K1 cells; experiment: β-Lactamase (BLA) bioassay, CCF2-AM cleavage by flow cytometry; format: cell-based; details: SpyC-BLA/CPP-SpyT conjugates; comparator TAT-SpyTag conjugate
Description: CHO-K1 cells (seeded at 1×10^5 cells/well in 24-well plates) were incubated with purified SpyC_BLA (SEQ ID NO:90) and SpyC_BLA_FPP1.1 (SEQ ID NO:91) proteins at […]/5% CO2 for 2 hours. Cells were washed, detached by 5 mins incubation with trypsin, washed, loaded with the β-lactamase substrate CCF2-AM and analysed by Flow Cytometry; intracellular β-lactamase activity caused an emission shift from 510 nm to 450 nm. The percentages of β-lactamase positive cells for each sample were graphed against the concentration of protein added to the cells. […]
β-Lactamase is a bacterial enzyme that catalyses the opening of β-lactam rings. […] To address this need, β-Lactamase was expressed as C-terminal SpyC fusion, making SpyC-BLA (SEQ ID NO:90). […]
CCF2-AM (Thermofisher Scientific, Australia) is a Fluorescence Resonance Energy Transfer (FRET) substrate that is enzymatically cleaved by β-Lactamase. […] In the presence of β-Lactamase, the fluorescein moiety of CCF2 is enzymatically cleaved, resulting in the emission wavelength shifting to 447 nm (blue). β-Lactamase activity is quantified by measuring the ratio of blue fluorescence to green fluorescence.
The cell-penetrating and endosomal escape ability of FPP1.1 (SEQ ID NO:39) and sequence variant SpyC-BLA/CCP-SpyT conjugates was assessed by flow cytometry to determine cytosolic CCF2-AM cleavage by internalized β-Lactamase. […]

[2] = system: CHO-K1 cells stably-expressing EGFR receptor; experiment: Bouganin assay: FPP_SpyT conjugated to EGFRAffibody_Bouganin_SpyC toxin, matched CHO-K1 lines (±hEGFR); format: cell-based; details: 100 nM toxin; 48 h; CHO-K1 EGFR vs CHO-K1
Description: FIG. 9 FPP compatibility with receptor binding delivery (RBD)-mediated delivery and half-life extension by PASylation. (A) a plot showing percent viability of CHO-K1 cells stably-expressing EGFR receptor or (B) CHO-K1 cells were treated with FPP_SpyT conjugated to EGFRAffybody_Bouganin SpyC (EGRFAffbd_Boug_SpyC) toxin. After 48 h incubation cell viability was assessed by resazurin reduction potential. […] Results are representative of 3 independent experiments. Error bars represent standard deviation from the mean of duplicate samples. **P<0.01, ***P<0.001 by one-way ANOVA with Dunnett's multiple comparison test. (C) T47D cells were treated with FPP_PAP_linker_SpyT with and without conjugation to PAS_SpyC recombinant protein. […] Linkers are Cathepsin B FKFL cleavage motif (BF), Cathepsin B Valine-Citrulline cleavage motif (Ba) and Furin RKKR cleavage motif (Fur). Results are representative of 2 independent experiments. Error bars represent standard deviation from the mean of duplicate samples.
All assays followed manufacturer's instructions.

Sequence	delivery of BLA to the cytosol [1]	delivery of EGFRAffbd_Boug_SpyC toxin, cell viability [2]
PKKPKTQEKKKKQPPK (Amino acid sequence of a Sindbis virus capsid-derived CPP (SAR1)) [FPP1-SAR1]	ineffective in delivering BLA	
KTQEKKKKQPPKPKKPKTQEKKKKQPPKPKR (Amino acid sequence of a Sindbis virus capsid-derived CPP (del1746)) [FPP1-del]		significantly improved delivery compared to RBD alone but retains RBD encoded specificity

From patent US20210087238A1, “CELL PENETRATING PEPTIDES AND RELATED COMPOSITIONS AND METHODS” (Phylogica Limited, priority 2017, published 2021)
